The results in this text go back to a melting point compilation (Tetko et al.; mined from patent text by program, amines drawn as free bases though some values may be those of a salt).

For orientation: melting point means the temperature of the solid-liquid transition.

On to `COc1cc2c(cc1Cl)C(=O)Cc1ccc(F)cc1S2`, for which the melting point is 195 to 197 °C.

Consider `CCCCCN1CC[C@@H](c2ccccc2C(F)(F)F)[C@H](CO)C1` (racemic), for which the melting point stood at 110 °C.

Molecule `CCn1cc(C(=O)O)c(=O)c2cc(F)c(N3CC(N)C3)nc21` registered a melting point of 260 to 262 °C.

On to `COCCS(=O)(=O)c1ccccc1S(N)(=O)=O`, for which the melting point was in the range of 120 to 123 °C.

Regarding `COc1ccc(OCc2ccc3ccccc3n2)cc1C1(c2ccccc2)CC2CCC1C2` (centres undefined), the melting point fell in the range of 138 to 139 °C.

Regarding `CCOC(=O)c1ccc(S(N)(=O)=O)cc1`, the melting point fell in the range of 102 to 104 °C.

The molecule `COC(=O)C(CCCBr)Oc1cc2c(cc1[N+](=O)[O-])CCC2` (centres undefined) showed a melting point of 154 to 155 °C.

In turn, `COc1ccc(N2CCOCC2)c2sc(-c3nc4c([nH]3)CCN(C(=O)c3ccccc3C)CC4)nc12` registered a melting point of 194 to 196 °C.

The molecule `CC1(C)OC[C@H](COc2nc(S(C)(=O)=O)nc3[nH]nc(-c4ccccc4Cl)c23)O1` gave a melting point of 161 to 162 °C.

Molecule `Cc1onc(-c2ccc(-c3cscn3)cc2)c1-c1ccc(S(N)(=O)=O)c(F)c1` came in with a melting point of 216 °C.

Consider `O=[N+]([O-])c1cccc2c1nc(-c1c(F)cccc1F)n2Cc1c(F)cccc1F`, for which the melting point was in the range of 168 to 170 °C.

Molecule `COC(=O)/C=C/C=C(\c1ccccc1)c1ccc(OC)cc1` had a melting point of 88 to 89.5 °C.

Take `CCOC(=O)c1c(C(F)F)nc(C(F)(F)F)c(C(=O)OCC)c1NC(C)(C)C`: the melting point lay within 30 to 31 °C.

Regarding `CON=C(C[N+](=O)[O-])NCc1cccnc1`, the melting point was 77 to 78 °C.

`CC1(COc2nc3ccccc3o2)Cn2cc([N+](=O)[O-])nc2O1` (centres undefined) gave a melting point of 200 to 203 °C.

The molecule `COCCNC(=O)c1nc(NC(C)=O)c2cc(Cc3ccc(F)cc3)cnc2c1OCc1ccccc1` registered a melting point of 147 to 149 °C.

`Cc1cccc(Oc2cccc(Oc3ccc4c(c3)OCO4)c2C(=O)O)c1`: the melting point lay within 169 to 172 °C.

Regarding `CCCCc1nc(Cl)c(CC#N)n1Cc1ccc([N+](=O)[O-])cc1`, the melting point fell in the range of 118 to 121 °C.

In turn, `O=C(Nc1cccnn1)N1CCN(c2nccc(-c3ccccc3F)n2)CC1` displayed a melting point of 228 to 229 °C.

In turn, `O=C(O)/C=C/C#Cc1cccc(S(=O)(=O)Nc2ccccc2)c1` showed a melting point of 188 to 190 °C.

Molecule `Cc1c(Nc2c(C#N)cncc2-c2cc3cc(CN4CCCCC4)ccc3s2)ccc2[nH]ccc12` came in with a melting point of 174 to 175 °C.

The molecule `Cc1ccccc1NC(=O)Nc1ccc(CC(=O)N2CCN(C(C)C(=O)O)C(=O)C2Cc2ccccc2)cc1` (centres undefined) came in with a melting point of 103 to 105 °C.

In the case of `CCOC(=O)c1nn(-c2ccc(Cl)cc2Cl)c(-c2cccs2)c1C`, the melting point lay within 121 to 122 °C.

Take `Nc1ccc(Br)cc1C(=O)c1ccccc1`: the melting point is 109 to 110 °C.

`COc1ccc(C(=O)Nc2ccccc2)cc1NCc1cccc([N+](=O)[O-])c1` gave a melting point of 172 to 175 °C.

`Cc1cc(C#N)ccc1N1CCN(C(=O)OC(C)(C)C)CC1` had a melting point of 127 to 131 °C.

In turn, `CC(C)n1c(=O)nc(-c2ccccc2)c2ccc(CO)cc21` displayed a melting point of 223 to 225 °C.

`Cc1cc(-c2ccc(OC3SCC(O)C(O)C3O)cn2)ccn1` (centres undefined) showed a melting point of 214 °C.

In turn, `CCCCNC(=O)NS(=O)(=O)c1ccc(CCNC(=O)N2CCCCC2=O)cc1` registered a melting point of 156 to 158 °C.

As to `Fc1ccccc1N1CCN(Cc2nc3ccccc3[nH]2)CC1`, the melting point lay within 262 to 264 °C.

In the case of `N#Cc1c(-c2ccc(Cl)cc2)[nH]c(Cl)c1Cl`, the melting point is 259 to 261 °C.

`CC(=O)C(=CC(=O)O)c1ccccc1` came in with a melting point of 70 °C.

For `CCc1nc2c(N)nc(C)c(C)c2n1CCOCCN`, the melting point is 152 to 154 °C.

`COc1ccc(C(=O)NC(=O)Nc2ccc3c(c2)NC(=O)/C3=C/c2ccc(Cl)cc2)cc1` came in with a melting point of 278 to 283 °C.

For the molecule `CCCc1nc2c(N)nc3ccccc3c2n1CCS(C)(=O)=O`, the melting point was 212 to 214 °C.

Turning to `Oc1ccc(I)c(-c2cc(O)ccc2I)c1`, the melting point was in the range of 181 to 182 °C.

Consider `CCn1ncc2c(NCC3CCCCC3)c3ccc([N+](=O)[O-])cc3nc21`, for which the melting point lay within 205 to 207 °C.

Consider `CCOC(=O)c1cnc2nn(C)cc2c1OC(C)C`, for which the melting point lay within 107 to 109 °C.

Regarding `CCOC(=O)C1=C(C)NC(C)=C(C(=O)OCCSC(C)=O)C1c1cccc([N+](=O)[O-])c1` (centres undefined), the melting point fell in the range of 98 to 101 °C.

Take `COc1ccc(C(=O)c2cn3c4c(cccc24)OCC3CN2CCOCC2)cc1` (centres undefined): the melting point was 209 to 214 °C.

Consider `COc1ccc(NC(=O)C(F)F)cn1`, for which the melting point was 75 to 78 °C.

As for `CCCn1c(=O)sc2cc(F)c(NC(=O)C=C(CC)NC(=O)OCC)cc21`, the melting point fell in the range of 174 to 175 °C.

`COc1ccc(-c2cc(=O)n(C)c(OC(C)C)n2)cc1OC` returned a melting point of 124 to 126 °C.

In turn, `N=C(N)Nc1nc2ccc(OCc3ccccc3)cc2[nH]1` displayed a melting point of 224 to 227 °C.

`Cc1ccc(S(=O)(=O)OCC2CCc3nc(C)sc3C2)cc1` (centres undefined) came in with a melting point of 70 to 71 °C.

Consider `Cc1nc(N)c2nc(CO)n(NCc3ccccc3)c2c1C`, for which the melting point was above 250 °C.

Consider `Cc1cc(NCCO)c2[nH]nc(Br)c2n1`, for which the melting point lay in the range of 210 to 214 °C.

On to `COC(=O)c1cccc(CC2COc3ccc(OCc4ccc5ccccc5n4)cc3C2O)c1` (centres undefined), for which the melting point was 153 to 154 °C.

`CN(C)CC(=O)OCc1ccc2c(c1)-c1n[nH]c(=O)c3cccc(c13)O2` yielded a melting point of 227 to 230 °C.

Take `Cc1c(-c2ccc(O)cc2)n(Cc2ccc(OCCN3CCCC(C)C3)cc2)c2ccc(O)cc12` (centres undefined): the melting point lay in the range of 121 to 123 °C.

Molecule `Cc1ccc2c(c1)CSc1nnc(C)n1-2` had a melting point of 168 °C.

Turning to `CC(=NNC(=N)N)c1sc(-c2ccc(-c3ccccc3)cc2)nc1C`, the melting point fell in the range of 278 to 280 °C.

For the molecule `c1cc2cc(N3CCOCC3)ccc2s1`, the melting point was 127 to 132 °C.

As to `Clc1ccc(C2CC(n3cncn3)c3ccccc3N2)cc1` (centres undefined), the melting point lay in the range of 150 to 152 °C.

With `Cc1cccc(CC(=O)NC(C)C)c1NC(=O)c1cc(C(F)(F)F)nn1-c1ncccc1Cl`, the melting point is 206 to 207 °C.

For the molecule `Cc1cc(SC2=C(O)CC(CCc3csc(CO)c3)(C(C)C)OC2=O)c(C(C)(C)C)cc1CO` (centres undefined), the melting point lay within 76 to 80 °C.

With `Fc1cccc(CSc2nnc(-c3ccnc4[nH]ccc34)o2)c1`, the melting point lay within 190 to 191 °C.

Molecule `CCN1C=C(C(=O)O)C(=O)CC1c1ccc(OC)c(OC)c1` (centres undefined) displayed a melting point of 182 to 183 °C.

Take `N#Cc1cc(Cl)ccc1NC(=O)C(F)(F)F`: the melting point lay in the range of 105 to 107 °C.

`CC(=O)Nc1ccc2c3c(oc2c1)CC(C(=O)O)CC3` (centres undefined): the melting point was 229 to 230 °C.

Take `CCCCCCCCCCCCCCCCCCNC(=O)c1ccc(O)cc1`: the melting point turned out to be 105 °C.

For `Cc1ccc(C(=O)c2cc(CN3CCOCC3)c(O)c(C(C)(C)C)c2)cc1`, the melting point was in the range of 131 to 133 °C.

On to `CCOC(=O)CC(=O)C=Cc1ccccc1`, for which the melting point was found to be 49 °C.

For `CC(=O)Nc1cccn(CC(=O)NC(C(=O)C(F)(F)F)C(C)C)c1=O` (centres undefined), the melting point fell in the range of 76 to 80 °C.

`O=[N+]([O-])c1ccc2[nH]c(-c3ccccc3)cc2c1` displayed a melting point of 199 to 200 °C.

`COc1ccc(CCN(C)CCCCc2ccc(NC(=O)c3cccc4c(=O)c5ccccc5[nH]c34)cc2)cc1` yielded a melting point of 143 °C.

`Cc1c(SCCCSc2ncccn2)ccnc1CNc1cnc2ccccc2c1` had a melting point of 132 to 133 °C.

`NC(=O)C(OC(=O)c1ccccc1Cl)(C(N)=O)c1ccc(Cl)c(Cl)c1` showed a melting point of 220 °C.

`CCOc1ccc(S(=O)(=O)N2c3ccc(Cl)cc3C(O)(c3ccccc3Cl)C2C(=O)N(C)CC(=O)OC)cc1` (centres undefined) showed a melting point of 168 to 171 °C.

In the case of `N=c1n[n+]([O-])c2ccccc2n1OC(=O)c1ccccc1`, the melting point is 177 to 179 °C.

For `CCCCN1CCn2c1nc(C(=O)NCc1ccc(F)cc1C(=O)NC)c(O)c2=O`, the melting point lay in the range of 175 to 177 °C.

Molecule `OCc1ccc2c(c1)C=C(n1ccnc1)CC2` yielded a melting point of 88 to 91 °C.

In turn, `N#CCCC=C(c1ccccc1)c1ccccc1` came in with a melting point of 64 to 66 °C.

In the case of `Cc1c(Cc2cccc(C(F)(F)F)c2)sc2c(-c3cccc(C(=O)O)c3)cccc12`, the melting point lay within 172 to 173 °C.

Molecule `Cc1c2n(c3ccccc13)C(=O)C(Cc1cncn1C)CC2` (centres undefined) gave a melting point of 117 to 118 °C.

Regarding `Cc1nc(-n2ccc(OCc3ccccc3)cc2=O)[nH]c1C(=O)NCc1ccccc1`, the melting point was 183 to 184 °C.

In turn, `C#CCN1C(=O)COc2cc(F)c(N(C(=O)CCl)C(=O)C3=C(C(=O)OC)CCCC3)cc21` had a melting point of 156 to 158 °C.

`COC(=O)NC(C)=NS(=O)(=O)NC(C)C`: the melting point is 193 to 196 °C.

For the molecule `COc1cc2c(c3c1OC(C)(C)C3)C(c1ccncc1)=NC(C)(C)C2`, the melting point is 173 to 175 °C.

In turn, `O=Cc1c(Cl)c(Br)c(Br)c(Br)c1Br` registered a melting point of 268 to 269 °C.

In turn, `CCCCCCCCn1c2cc(I)ccc2c2ccc(I)cc21` came in with a melting point of 82 to 84 °C.

Consider `O=C(Nc1cccc(NC(=O)C(F)(F)C(F)(F)F)c1)Nc1ccc(Cl)c(Cl)c1`, for which the melting point was 195 to 197 °C.

Turning to `O=c1c2c(Cc3cccc(OC(F)(F)F)c3)n[nH]c2c2cccnc2n1-c1cccc(OC(F)(F)F)c1`, the melting point is 174 to 177 °C.

Turning to `CCOC(=O)c1c2n(c3cc(F)c(F)cc3c1=O)CCCC2`, the melting point lay within 166 to 168 °C.

The molecule `CCOC(=O)N1CCN(C(c2ccccc2)c2ccccc2)CC1(C)Cc1ccc(OC)c(OC)c1` (centres undefined) registered a melting point of 101 °C.

Consider `O=C(OCC1CCCCCCCCCC1)n1c(-c2cscn2)nc2ccccc21`, for which the melting point fell in the range of 86 to 87 °C.

Take `O=C(CCc1ccccc1)N[C@H](Cc1cccc(Oc2ccccc2)c1)[C@@H](O)c1ccc(F)cc1` (racemic): the melting point was in the range of 91 to 93 °C.

As for `O=C(O)c1cccc2c1CCc1cc(F)ccc1S2`, the melting point lay in the range of 200 to 202 °C.

Consider `N#CC1=C(CN2C(=O)c3ccccc3C2=O)Nc2n[nH]cc2C1c1ccccc1Cl` (centres undefined), for which the melting point was above 250 °C.
